{"source": "patent US7235557B2", "about": "“Compounds and their uses” (MGI GP, Inc., priority 2000, dated 2007)", "note": "pIC50: −log10 of the molar value."}
{"target": "T1, purified recombinant human PARP (Homo sapiens, UniProt P09874)", "T1 construct": "purchased Trevigan (Gaithersburg, Md.)", "T1 sequence (P09874 whole entry)": "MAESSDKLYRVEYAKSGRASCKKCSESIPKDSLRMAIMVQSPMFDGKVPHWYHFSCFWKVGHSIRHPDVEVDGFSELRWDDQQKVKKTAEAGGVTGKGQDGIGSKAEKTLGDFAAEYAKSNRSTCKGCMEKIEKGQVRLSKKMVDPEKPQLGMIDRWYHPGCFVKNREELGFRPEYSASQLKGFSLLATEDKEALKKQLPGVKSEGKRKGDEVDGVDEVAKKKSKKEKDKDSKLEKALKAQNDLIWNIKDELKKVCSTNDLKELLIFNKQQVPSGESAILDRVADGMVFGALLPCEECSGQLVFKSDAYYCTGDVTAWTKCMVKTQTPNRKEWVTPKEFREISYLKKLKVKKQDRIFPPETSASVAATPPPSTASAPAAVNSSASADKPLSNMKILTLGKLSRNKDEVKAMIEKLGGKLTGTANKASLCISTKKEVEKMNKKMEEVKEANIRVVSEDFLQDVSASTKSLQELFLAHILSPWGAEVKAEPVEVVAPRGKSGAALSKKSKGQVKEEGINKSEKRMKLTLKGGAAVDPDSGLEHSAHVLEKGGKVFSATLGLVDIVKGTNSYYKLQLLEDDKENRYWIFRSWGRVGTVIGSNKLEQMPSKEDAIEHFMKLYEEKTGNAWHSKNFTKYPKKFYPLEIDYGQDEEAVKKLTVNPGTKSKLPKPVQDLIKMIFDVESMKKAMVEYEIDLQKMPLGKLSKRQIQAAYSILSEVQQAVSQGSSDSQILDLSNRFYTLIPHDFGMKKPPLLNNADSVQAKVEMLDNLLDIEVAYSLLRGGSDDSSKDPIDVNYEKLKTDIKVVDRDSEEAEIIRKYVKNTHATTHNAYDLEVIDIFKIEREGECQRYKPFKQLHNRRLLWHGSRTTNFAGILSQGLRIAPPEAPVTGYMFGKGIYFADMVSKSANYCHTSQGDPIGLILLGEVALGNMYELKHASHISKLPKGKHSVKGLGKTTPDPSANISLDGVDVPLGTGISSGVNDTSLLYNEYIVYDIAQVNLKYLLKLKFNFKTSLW", "assay": "PARP enzyme assay (IC50)", "format": "biochemical", "settings": "IC50 (μM), approximate IC50 values, [3H]NAD", "experimental": "(§1) The reaction is initiated by adding enzyme and incubating the mixture at 25° C. After 2 minutes of incubation, the reaction is terminated by adding 500 microliters of ice cold 30% (w/v) trichloroacetic acid. The precipitate formed is transferred onto a glass fiber filter Packard Unifilter-GF/C) and washed three times with 70% ethanol. After the filter is dried, the radioactivity is determined by scintillation counting.", "units": {"IC50": "µM"}}
{"smiles": "CN(Cc1ccccc1)Cc1nc2cccc3c2n1CCNC3=O", "note": "[drawing 179]", "IC50": 0.166}
{"smiles": "Cc1nc2cccc3c2n1CCNC3=O", "IC50": 0.141}
{"target": "T1, purified recombinant human PARP", "assay": "PARP enzyme assay (IC50)", "format": "biochemical", "settings": "approximate IC50 values, [3H]NAD, read-out: IC50", "experimental": "as §1"}
{"smiles": "CN(C)CCCOc1ccc(-c2nc3cccc4c3n2CCNC4=O)cc1", "pIC50": 6.63}
{"smiles": "O=C1NCCn2c(CN3CCCCCC3)nc3cccc1c32", "pIC50": 6.00}
{"smiles": "Cn1cc2c3c(cccc31)C(=O)NCC2=O", "pIC50": 7.55}
{"smiles": "O=C1NN=C(CN2CCCCC2)c2c[nH]c3cccc1c23", "pIC50": 7.57}
{"smiles": "O=C(O)CCc1nc2cccc3c2n1CCNC3=O", "pIC50": 5.84}
{"smiles": "O=C1NN=Cc2c[nH]c3cccc1c23", "pIC50": 7.74}
{"smiles": "CN(C)CCN(Cc1ccccc1)Cc1nc2cccc3c2n1CCNC3=O", "pIC50": 6.82}
{"smiles": "O=C1NCCc2c[nH]c3cccc1c23", "pIC50": 6.44}
{"smiles": "CC(Cc1nc2cccc3c2n1CCNC3=O)c1ccccc1", "note": "(stereo not shown)", "pIC50": 6.89}
{"smiles": "O=C1NCCn2c(-c3ccc(O)cc3O)nc3cccc1c32", "pIC50": 6.73}
{"smiles": "O=C1NCCn2c(-c3cccc(C(=O)N4CCN(Cc5ccc6c(c5)OCO6)CC4)c3)nc3cccc1c32", "pIC50": 6.20}
{"smiles": "CN(C)CC(=O)Nc1cnc2c(c1)[nH]c(=O)c1ccccc12", "pIC50": 6.78}
{"smiles": "O=C1NN=C(CN2CCC(N3CCCC3)CC2)c2c[nH]c3cccc1c23", "pIC50": 7.01}
{"smiles": "O=C1CCN(Cc2nc3cccc4c3n2CCNC4=O)CC1", "pIC50": 6.48}
{"smiles": "CN(C)CCCN(C)C(=O)c1cccc(-c2nc3cccc4c3n2CCNC4=O)c1", "pIC50": 6.70}
{"smiles": "CCCCN(CCCC)Cc1nc2cccc3c2n1CCNC3=O", "pIC50": 5.76}
{"smiles": "O=C1NCCn2c(CN(CCc3ccccc3)Cc3ccccc3)nc3cccc1c32", "pIC50": 4.98}
{"smiles": "O=C1NCCn2c(CN3CCCCC3CO)nc3cccc1c32", "note": "(stereo not shown)", "pIC50": 6.47}
{"smiles": "COc1ccc(/C=C/c2nc3cccc4c3n2CCNC4=O)cc1", "pIC50": 6.85}
{"smiles": "O=C1NCCn2ccc3cccc1c32", "pIC50": 6.15}
{"smiles": "CC(C)(C)OC(=O)n1cc2c3c(cccc31)C(=O)NN=C2", "pIC50": 5.92}
{"smiles": "O=C1NCCn2c(-c3ccc(-c4ccc(Cl)cc4)o3)nc3cccc1c32", "pIC50": 6.02}
{"smiles": "O=c1[nH]c2ccc(O)nc2c2ccccc12", "pIC50": 6.94}
{"smiles": "O=C1NN=C(CN2CCOCC2)c2c[nH]c3cccc1c23", "pIC50": 7.43}
{"smiles": "O=C1NCCn2c(-c3ccc(Br)s3)nc3cccc1c32", "pIC50": 7.03}
{"smiles": "O=C1NCCn2c(/C=C/c3ccccc3)nc3cccc1c32", "pIC50": 7.15}
{"smiles": "CN(C)CC(=O)Nc1ccc2[nH]c(=O)c3ccccc3c2n1", "pIC50": 7.01}
{"smiles": "O=C1NCCn2c(C3CCCCC3)nc3cccc1c32", "pIC50": 6.69}
{"smiles": "O=C1NN=Cc2c(-c3ccccc3)[nH]c3cccc1c23", "pIC50": 8.00}
{"smiles": "O=C1NN=C(CN2CCCC2)c2c[nH]c3cccc1c23", "pIC50": 7.48}
{"smiles": "O=C1NCCn2c(-c3ccc4ccccc4c3)nc3cccc1c32", "pIC50": 7.49}
{"smiles": "O=C1NCCn2c(-c3cc(O)cc(O)c3)nc3cccc1c32", "pIC50": 7.05}
{"smiles": "O=C1NCCn2c(-c3ccccc3F)nc3cccc1c32", "pIC50": 6.48}
{"smiles": "Cn1cc(-c2nc3cccc4c3n2CCNC4=O)c2ccccc21", "pIC50": 6.57}
{"smiles": "O=C1NCCn2c(-c3cccc(Cl)c3)nc3cccc1c32", "pIC50": 7.10}
{"smiles": "Nc1ccc(C2CNC(=O)c3cccc4[nH]cc2c34)cc1", "note": "(stereo not shown)", "pIC50": 6.76}
{"smiles": "O=C1NCCn2c(CN3CCc4ccccc4C3)nc3cccc1c32", "pIC50": 6.71}
{"smiles": "O=C1NN=C(CN2CCN(c3ccccn3)CC2)c2c[nH]c3cccc1c23", "note": "[drawing 105]", "pIC50": 7.60}
{"smiles": "O=C1NCCn2c(-c3ccc(Br)cc3)nc3cccc1c32", "pIC50": 7.27}
{"smiles": "CC(C)N1CCN(CC(=O)Nc2cnc3c(c2)[nH]c(=O)c2ccccc23)CC1", "pIC50": 7.07}
{"smiles": "O=C1NN=Cc2c(-c3ccc(F)cc3)[nH]c3cccc1c23", "pIC50": 7.14}
{"smiles": "O=C1NCCn2c(-c3ccc(-c4cccc(Cl)c4)o3)nc3cccc1c32", "pIC50": 6.70}
{"smiles": "O=C1NCCn2cnc3cccc1c32", "pIC50": 6.52}
{"smiles": "COc1ccc(CC(C)c2nc3cccc4c3n2CCNC4=O)cc1", "note": "(stereo not shown)", "pIC50": 6.89}
{"smiles": "O=C1NC=C(Br)c2c[nH]c3cccc1c23", "pIC50": 7.21}
{"smiles": "O=C1NN=Cc2c(Br)[nH]c3cccc1c23", "pIC50": 7.59}
{"smiles": "O=C1NCCn2c(CN3CCCc4ccccc43)nc3cccc1c32", "pIC50": 6.09}
{"smiles": "O=C1NCCn2c(CN3CCN(Cc4ccccc4)CC3)nc3cccc1c32", "pIC50": 5.66}
{"smiles": "CCN1CCN(CC2=NNC(=O)c3cccc4[nH]cc2c34)CC1", "pIC50": 7.22}
{"smiles": "CN(C)CCCN(C)Cc1nc2cccc3c2n1CCNC3=O", "pIC50": 6.33}
{"smiles": "O=c1[nH]c2ccc(N3CCN(CC4CCCO4)CC3)nc2c2ccccc12", "note": "(stereo not shown)", "pIC50": 6.75}
{"smiles": "O=C(NCCN1CCOCC1)c1cccc(-c2nc3cccc4c3n2CCNC4=O)c1", "pIC50": 6.35}
{"smiles": "CN(C)CCN(C)CC1=NNC(=O)c2cccc3[nH]cc1c23", "pIC50": 7.46}
{"smiles": "CC(C)(C)OC(=O)N1CCN(Cc2nc3cccc4c3n2CCNC4=O)CC1", "pIC50": 6.58}
{"smiles": "O=C(CN1CCC(N2CCCC2)CC1)Nc1ccc2[nH]c(=O)c3ccccc3c2n1", "pIC50": 6.85}
{"smiles": "O=C(O)c1cccc(-c2nc3cccc4c3n2CCNC4=O)c1", "pIC50": 6.81}
{"smiles": "COCc1nc2cccc3c2n1CCNC3=O", "pIC50": 6.64}
{"smiles": "O=C1NCCn2c(-c3ccco3)nc3cccc1c32", "pIC50": 6.97}
{"smiles": "CCCCCCN(CCCCCC)Cc1nc2cccc3c2n1CCNC3=O", "pIC50": 6.04}
{"smiles": "CN(C)Cc1nc2cccc3c2n1CCNC3=O", "pIC50": 7.17}
{"smiles": "O=C1NCCn2c(-c3cc(F)cc(F)c3)nc3cccc1c32", "pIC50": 7.21}
{"smiles": "O=C1NN=C(CN2CCN(c3ccccn3)CC2)c2c[nH]c3cccc1c23", "note": "[drawing 106]", "pIC50": 7.43}
{"smiles": "O=C1NCCn2c(-c3cccnc3)nc3cccc1c32", "pIC50": 6.77}
{"smiles": "O=c1[nH]c2ccc(N3CCNCC3)nc2c2ccccc12", "pIC50": 7.35}
{"smiles": "CC(C)N1CCN(c2ccc3[nH]c(=O)c4ccccc4c3n2)CC1", "pIC50": 6.75}
{"smiles": "COC(=O)C1CN(C(=O)c2cccc(-c3nc4cccc5c4n3CCNC5=O)c2)CCC1=O", "note": "(stereo not shown)", "pIC50": 6.43}
{"smiles": "CN(C)CCNC(=O)c1cccc(-c2nc3cccc4c3n2CCNC4=O)c1", "pIC50": 6.61}
{"smiles": "O=C1NN=C(CN2CCN(Cc3ccccc3)CC2)c2c[nH]c3cccc1c23", "pIC50": 6.85}
{"smiles": "Cn1c(-c2ccccc2)c2c3c(cccc31)C(=O)NN=C2", "pIC50": 7.33}
{"smiles": "CC(C)N(Cc1nc2cccc3c2n1CCNC3=O)C(C)C", "pIC50": 6.19}
{"smiles": "Nc1cnc2c(c1)[nH]c(=O)c1ccccc12", "pIC50": 6.74}
{"smiles": "O=c1[nH]c2ccc(OCc3ccccc3)nc2c2ccccc12", "pIC50": 4.70}
{"smiles": "O=C(NCCN1CCCC1)c1cccc(-c2nc3cccc4c3n2CCNC4=O)c1", "pIC50": 6.49}
{"smiles": "COc1ccc2c(c1)c(=O)[nH]c1cccnc12", "pIC50": 5.38}
{"smiles": "O=c1[nH]c2ccc(Cl)nc2c2ccccc12", "pIC50": 5.68}
{"smiles": "CCCN(CCC)Cc1nc2cccc3c2n1CCNC3=O", "pIC50": 6.69}
{"smiles": "CCN(CC)CCNC(=O)c1cccc(-c2nc3cccc4c3n2CCNC4=O)c1", "pIC50": 6.35}
{"smiles": "COC(=O)C1CN(Cc2nc3cccc4c3n2CCNC4=O)CCC1=O", "note": "(stereo not shown)", "pIC50": 6.36}
{"smiles": "O=C1NCCn2c(C#Cc3ccccc3)nc3cccc1c32", "pIC50": 7.36}
{"smiles": "O=C1NCCn2c(CN3CCOCC3)nc3cccc1c32", "pIC50": 6.28}
{"smiles": "O=C1NN=Cc2cn(Cc3ccccc3)c3cccc1c23", "pIC50": 4.89}
{"smiles": "CN1CCN(Cc2nc3cccc4c3n2CCNC4=O)CC1", "pIC50": 5.80}
{"smiles": "COc1ccc2[nH]c(=O)c3ccccc3c2n1", "pIC50": 6.67}
{"smiles": "CCCCCN(CCCCC)Cc1nc2cccc3c2n1CCNC3=O", "pIC50": 6.04}
{"smiles": "O=C1NCCn2c(-c3ccc(F)cc3)nc3cccc1c32", "pIC50": 6.70}
{"smiles": "O=C1NCCn2c(-c3ccc4ccccc4n3)nc3cccc1c32", "pIC50": 6.52}
{"smiles": "O=c1[nH]c2cc(Cl)cnc2c2ccccc12", "pIC50": 6.53}
{"smiles": "O=C1NN=C(Cc2ccccc2)c2c[nH]c3cccc1c23", "pIC50": 7.19}
{"smiles": "O=C1NCCn2c(-c3ccc([N+](=O)[O-])o3)nc3cccc1c32", "pIC50": 7.68}
